# Source: ChEMBL document CHEMBL1201862, “PubChem BioAssay data set” (2004)
# Active and inactive are the calls of the source. Rule as the data show it, for most assays here: actives have a measured EC50 and inactives only a lower limit.
# Experiments:
# [1] = target: T1, RNA-binding protein pos-1 (Caenorhabditis elegans, UniProt G5EF15); test: inhibitors of POS-1/mex-3 RNA binding, dose response, biochemical, fluorescence polarization (AID 1964);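 also: purified POS-1 fused to maltose binding protein made in E. coli; potency of compounds blocking POS-1 binding to fluorescent RNA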
# T1 sequence (G5EF15 whole entry): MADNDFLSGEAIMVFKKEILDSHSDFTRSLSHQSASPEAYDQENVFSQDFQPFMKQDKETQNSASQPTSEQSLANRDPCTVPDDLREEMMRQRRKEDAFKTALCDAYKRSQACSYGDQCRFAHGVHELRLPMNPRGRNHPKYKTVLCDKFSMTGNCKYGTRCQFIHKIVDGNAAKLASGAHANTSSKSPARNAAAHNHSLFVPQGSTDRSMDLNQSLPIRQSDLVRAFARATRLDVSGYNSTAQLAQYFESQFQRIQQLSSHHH
# [2] = target: T2, Zinc finger protein mex-5 (Caenorhabditis elegans, UniProt Q9XUB2); test: MEX-5/TCR-2 RNA interaction inhibitors, dose response, biochemical, C. elegans, fluorescence polarization (AID 1960)
# T2 sequence (Q9XUB2 whole entry): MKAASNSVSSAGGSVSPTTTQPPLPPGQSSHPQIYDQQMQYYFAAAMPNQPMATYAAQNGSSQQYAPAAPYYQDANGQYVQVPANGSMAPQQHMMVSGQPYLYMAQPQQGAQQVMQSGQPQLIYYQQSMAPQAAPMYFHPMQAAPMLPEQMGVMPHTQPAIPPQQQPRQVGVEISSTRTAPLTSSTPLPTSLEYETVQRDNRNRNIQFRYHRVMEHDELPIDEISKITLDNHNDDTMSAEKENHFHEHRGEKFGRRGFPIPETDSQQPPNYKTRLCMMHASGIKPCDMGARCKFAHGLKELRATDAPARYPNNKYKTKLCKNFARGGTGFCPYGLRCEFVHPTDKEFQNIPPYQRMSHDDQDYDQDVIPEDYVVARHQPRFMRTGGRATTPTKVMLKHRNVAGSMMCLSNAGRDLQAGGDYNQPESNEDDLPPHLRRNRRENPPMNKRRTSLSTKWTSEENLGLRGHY
# [3] = target: T3, Cytochrome P450 3A4 (Homo sapiens, UniProt P08684); conditions: Potency
# [4] = target: T3, Cytochrome P450 3A4
# [5] = inhibitors of firefly luciferase expression or activity, dose response, H4 neuroglioma cells, luminescence (AID 1990); format: functional, cell-based
# [6] = Luminescence Cell-Based Dose Response HTS to Identify Inhibitors of 5'UTR Stem-Loop Driven Prion Protein mRNA Translation in H4 Neuroglioblastoma Cells. [Related pubchem assays: 1827 (Project Summary), 1813 (Primary HTS)]; format: functional
# [7] = inhibitors of SNCA 5'UTR-driven reporter translation, confirmation, H4 neuroglioma cells, luminescence (AID 1988); format: functional, cell-based
# [8] = target: T4, Replicative DNA helicase DnaB (Mycobacterium tuberculosis, UniProt P9WMR3); test: DnaB intein splicing inhibitors, dose response, biochemical, cell-free fluorescence (AID 449749); format: functional
# T4 sequence (P9WMR3 whole entry): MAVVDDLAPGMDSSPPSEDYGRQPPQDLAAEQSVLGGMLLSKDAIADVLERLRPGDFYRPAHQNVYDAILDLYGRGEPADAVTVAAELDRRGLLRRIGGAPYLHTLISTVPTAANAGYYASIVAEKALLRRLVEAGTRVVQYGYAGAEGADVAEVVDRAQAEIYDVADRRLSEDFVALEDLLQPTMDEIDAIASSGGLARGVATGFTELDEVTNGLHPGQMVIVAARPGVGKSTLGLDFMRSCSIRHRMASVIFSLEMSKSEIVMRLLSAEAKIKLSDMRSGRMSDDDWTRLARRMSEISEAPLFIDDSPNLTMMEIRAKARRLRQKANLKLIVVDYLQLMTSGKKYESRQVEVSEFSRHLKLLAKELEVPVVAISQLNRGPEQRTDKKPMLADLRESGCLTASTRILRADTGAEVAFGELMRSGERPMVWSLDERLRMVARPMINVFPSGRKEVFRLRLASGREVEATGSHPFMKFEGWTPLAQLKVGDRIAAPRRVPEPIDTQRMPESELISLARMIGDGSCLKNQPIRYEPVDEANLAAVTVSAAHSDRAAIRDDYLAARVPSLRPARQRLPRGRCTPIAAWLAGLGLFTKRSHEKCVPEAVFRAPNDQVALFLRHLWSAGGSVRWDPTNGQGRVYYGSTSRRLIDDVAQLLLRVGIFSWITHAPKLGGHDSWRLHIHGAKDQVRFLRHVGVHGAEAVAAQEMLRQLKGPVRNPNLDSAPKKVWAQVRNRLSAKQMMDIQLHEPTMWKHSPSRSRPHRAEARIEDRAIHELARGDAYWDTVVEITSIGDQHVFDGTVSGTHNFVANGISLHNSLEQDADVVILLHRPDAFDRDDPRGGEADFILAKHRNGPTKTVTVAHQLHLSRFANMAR
# [9] = target: T5, Protein RecA (Mycobacterium tuberculosis, UniProt P9WHJ3); test: Fluorescence Cell-Free Homogeneous Dose Retest to Identify Inhibitors of RecA-Intein Splicing Activity. [Related pubchem assays (depositor defined):AID2097, AID2223, AID489010, AID492950]; format: functional
# T5 sequence (P9WHJ3 whole entry): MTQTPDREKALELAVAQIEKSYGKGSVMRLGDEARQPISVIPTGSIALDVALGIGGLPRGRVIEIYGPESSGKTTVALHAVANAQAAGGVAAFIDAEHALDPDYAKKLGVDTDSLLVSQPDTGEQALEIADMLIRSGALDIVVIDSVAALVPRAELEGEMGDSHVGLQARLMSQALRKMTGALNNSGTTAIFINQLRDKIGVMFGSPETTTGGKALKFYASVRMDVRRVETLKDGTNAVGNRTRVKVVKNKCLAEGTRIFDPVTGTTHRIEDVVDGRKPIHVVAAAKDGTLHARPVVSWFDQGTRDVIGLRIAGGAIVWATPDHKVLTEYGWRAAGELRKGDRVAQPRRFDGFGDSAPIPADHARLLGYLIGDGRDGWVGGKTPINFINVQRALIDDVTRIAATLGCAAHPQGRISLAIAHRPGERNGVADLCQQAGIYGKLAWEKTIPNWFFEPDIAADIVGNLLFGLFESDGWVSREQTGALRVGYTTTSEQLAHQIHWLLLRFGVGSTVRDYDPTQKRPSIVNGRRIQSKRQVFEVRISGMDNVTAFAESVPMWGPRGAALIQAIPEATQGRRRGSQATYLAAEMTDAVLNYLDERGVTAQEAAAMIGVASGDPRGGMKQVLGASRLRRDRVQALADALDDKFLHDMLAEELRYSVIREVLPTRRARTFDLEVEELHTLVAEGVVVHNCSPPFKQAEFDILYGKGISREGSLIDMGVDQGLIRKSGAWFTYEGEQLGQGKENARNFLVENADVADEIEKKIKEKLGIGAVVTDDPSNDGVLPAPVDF
# [10] = test system: H9c2; test: cells; format: functional, cell-based; conditions: Rattus norvegicus, H9c2, Myocardium;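 also: confirmatory concentration-response retest of ultra-high-throughput screening hits for modulation of myocardial damage; cell death induced by hydrogen peroxide oxidative stress; compound pretreatment for 60 min then peroxide exposure for 2 h; potency is for protecting the cells against peroxide damage rather than for killing them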
# [11] = inhibitors of intracellular T. cruzi replication, confirmation, NIH3T3 host cells, beta-gal luminescence (AID 2044); format: functional, cell-based;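 also: intracellular parasites grown in NIH/3T3 mouse fibroblasts as host cells; luminescent beta-galactosidase reporter signal from transgenic T. cruzi replicating inside host cells; inhibitors lower the luminescence signal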
# [12] = cytotoxicity toward NIH3T3 fibroblasts, dose response, counter-screen, cell-based, ATP luminescence, mouse fibroblasts (AID 2010); format: functional;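 also: cells exposed to compound for about 90 hours before reading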
# [13] = test system: INS1; test: beta cell apoptosis inhibitors, cytokine rescue, dose response, luminescence, retest (AID 449756); format: functional, cell-based; conditions: Rattus norvegicus;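 also: cell death triggered by IL-1 beta plus TNF-alpha plus IFN-gamma mixture; protective hits raise ATP signal compared with cytokine alone wells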
# [14] = test system: Streptococcus sp. 'group A'; test: growth inhibition of control SK(-) GAS strain, dose response, counter-screen for streptokinase expression inhibitor project, luminescence, kanamycin, BacTiterGlo, confirmation (AID 1900); format: functional, organism-based
# [15] = target: T6, Streptokinase A (Streptococcus pyogenes serotype M1, UniProt P10520); test: S. pyogenes streptokinase expression inhibitors, potency, dose response, plasminogen activation absorbance, OD405 (AID 1914); format: functional, Streptococcus pyogenes M1 GAS;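 also: secreted streptokinase activity via plasminogen activation per viability signal from cell pellet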
# T6 sequence (P10520 whole entry): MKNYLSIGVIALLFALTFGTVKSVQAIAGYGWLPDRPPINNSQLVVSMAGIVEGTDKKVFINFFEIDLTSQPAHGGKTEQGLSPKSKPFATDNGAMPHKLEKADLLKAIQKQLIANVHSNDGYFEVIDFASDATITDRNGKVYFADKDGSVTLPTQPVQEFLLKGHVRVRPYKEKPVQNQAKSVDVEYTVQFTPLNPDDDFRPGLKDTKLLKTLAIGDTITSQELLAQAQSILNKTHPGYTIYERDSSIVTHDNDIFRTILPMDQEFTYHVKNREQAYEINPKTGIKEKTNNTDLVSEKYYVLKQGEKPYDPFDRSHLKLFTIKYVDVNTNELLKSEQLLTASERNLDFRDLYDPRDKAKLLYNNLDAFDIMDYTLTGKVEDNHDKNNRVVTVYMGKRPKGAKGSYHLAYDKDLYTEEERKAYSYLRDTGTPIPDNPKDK
# [16] = test system: Streptococcus; test: Group A Streptococcus viability loss, dose response, counter-screen for streptokinase expression inhibitor project, luminescence, BacTiterGlo (AID 1915); format: functional, organism-based;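 also: potency for reduction of bacterial viability or growth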
# T3 sequence (P08684 whole entry): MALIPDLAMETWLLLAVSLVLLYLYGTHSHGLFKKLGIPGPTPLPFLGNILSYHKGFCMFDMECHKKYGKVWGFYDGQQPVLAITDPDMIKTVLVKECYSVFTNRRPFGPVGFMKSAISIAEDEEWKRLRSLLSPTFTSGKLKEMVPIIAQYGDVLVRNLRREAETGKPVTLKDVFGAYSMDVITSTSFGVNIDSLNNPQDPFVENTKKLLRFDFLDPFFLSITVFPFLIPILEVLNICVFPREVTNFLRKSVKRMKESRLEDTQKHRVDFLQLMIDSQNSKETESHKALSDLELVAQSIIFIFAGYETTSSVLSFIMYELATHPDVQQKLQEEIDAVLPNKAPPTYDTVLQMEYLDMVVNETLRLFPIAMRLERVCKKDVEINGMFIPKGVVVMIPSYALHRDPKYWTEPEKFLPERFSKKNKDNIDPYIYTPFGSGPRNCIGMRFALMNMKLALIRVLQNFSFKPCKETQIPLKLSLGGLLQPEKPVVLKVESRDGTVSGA
smiles,measurement,setting,value
CN1CCCc2cc3c(C(F)(F)F)cc(=O)oc3nc21,EC50,[1],24.9 µM (active)
same,EC50,[2],25.7 µM (inconclusive)
Cc1nc(/N=N\c2cc(S(=O)(=O)O)c3cc([N+](=O)[O-])cc(S(=O)(=O)O)c3c2)c(COP(=O)(O)O)c(C=O)c1O,AC50,[3],15.8 µM (inconclusive)
C=C1CC[C@@H]2O[C@@]2(C)CC[C@H]2[C@H]1CC2(C)C,AC50,[3],39.8 µM (inconclusive)
Cc1ccc(N2C(=O)/C(=C/c3ccc(CN(CCC#N)S(C)(=O)=O)o3)C(=O)NC2=S)cc1C,EC50,[1],15.5 µM (active)
same,EC50,[2],9.89 µM (active)
same,AC50,[4],22.4 µM (inconclusive)
N#Cc1ccc(C23CC4(C2)[C@H](CN(Cc2ccc(C(F)(F)F)cc2)[C@@H]4c2ccccc2)C3c2ccccc2)cc1 (some centres not stated),AC50,[3],25.1 µM (inconclusive)
CCN(CC)C(=O)CSc1nnc2nnc3cc(OC)ccc3n12,EC50,[5],14.9 µM (active)
same,EC50,[1],7.7 µM (active)
same,EC50,[6],> 120 µM (not active)
same,EC50,[2],5.43 µM (active)
same,EC50,[7],10.8 µM (active)
same,AC50,[8],> 380 µM (inactive)
same,EC50,[9],128 µM (active)
CCC1OC(=O)C(C)[C@@H](O[C@H]2C[C@@](C)(OC)C(O)C(C)O2)C(C)[C@@H](O[C@@H]2OC(C)CC(N(C)C)C2O)[C@@](C)(O)CC(C)C(=O)[C@@H](C)C(O)[C@]1(C)O (some centres not stated),AC50,[3],31.6 µM (inconclusive)
O=C(NNC(=O)c1ccccc1O)c1ccco1,EC50,[1],24 µM (active)
same,EC50,[2],19.4 µM (active)
COC(=O)c1cc2ccccn2c2c(C(=O)OC)c(C(=O)OC)cc1-2,IC50,[10],> 79 µM (inactive)
Cc1cc(Nc2nc3ccccc3nc2Cl)n(-c2ccc([N+](=O)[O-])cc2)n1,EC50,[11],2.24 µM (active)
same,EC50,[12],> 60 µM (not active)
same,AC50,[13],8.83 µM (active)
CN(C)S(=O)(=O)c1ccc(NC(=O)COC(=O)Cn2[nH]c(=O)c3ccccc3c2=O)cc1,IC50,[10],> 79 µM (inactive)
C=C1CCC(=O)C(C)CCC2C1CC2(C)C (configuration not stated) [DIHYDROCARYOPHYLLEN-5-ONE],AC50,[3],25.1 µM (inconclusive)
Cc1sc(/C=C2\C(=O)ON=C2c2ccccc2)cc1Br,EC50,[1],24.1 µM (inconclusive)
same,EC50,[2],7.46 µM (inconclusive)
Cn1nc(C(=O)Nc2nc(-c3ccccn3)cs2)c2ccccc2c1=O,IC50,[10],> 79 µM (inactive)
BrC1C(Br)C(Br)C(Br)C(Br)C1Br (configuration not stated),AC50,[3],15.8 µM (inconclusive)
N#CC1=C(N)OC2=C(C(=O)CCC2)C12C(=O)N1CCCc3cccc2c31 (configuration not stated),EC50,[1],> 300 µM (not active)
same,EC50,[2],> 300 µM (not active)
COc1ccc2occ(C(=O)c3coc4ccc(O)c(CN(C)C)c34)c2c1,IC50,[10],> 79 µM (inactive)
Cc1cc(C2(c3cc(C)c(O)cc3C)OS(=O)(=O)c3ccccc32)c(C)cc1O,AC50,[3],7.94 µM (inconclusive)
Cc1ccc(-c2nnc(O)c3ccccc23)cc1N,IC50,[10],34.5 µM (inactive)
COC(c1ccccc1)C(C)C(OC)C(C)C(OC)C(C)C(C)=O (configuration not stated),AC50,[3],3.98 µM (inconclusive)
COc1cc(C=O)c([N+](=O)[O-])cc1OC,AC50,[3],25.1 µM (inconclusive)
O=C(CCN1C(=O)C2CC=C(Cl)CC2C1=O)N1CCCCC1 (configuration not stated),EC50,[1],29.5 µM (active)
same,EC50,[2],18.1 µM (active)
Cc1c(OCC(=O)NCCN2CCOCC2)ccc2c1oc(=O)c1ccccc12,IC50,[10],> 79 µM (inactive)
Cc1ccc2[nH]c(SCc3nc(O)c4ccccc4n3)nc2c1,IC50,[10],> 79 µM (inactive)
CC(C)CCn1cc[n+](C2=C([N-]S(=O)(=O)c3ccccc3)C(=O)c3ccccc3C2=O)c1,AC50,[13],4.76 µM (active)
CCCCC(=O)Nc1cc(C)c2c(=O)oc3ccccc3c2n1,IC50,[10],> 79 µM (inactive)
COC(=O)c1ccc(C23CC4(C2)[C@H](CN(C)[C@@H]4c2ccccc2)C3c2ccccc2)cc1 (some centres not stated),AC50,[3],12.6 µM (inconclusive)
CCCCCCCCCc1ccc(O)cc1 [4-NONYLPHENOL],AC50,[3],31.6 µM (inconclusive)
Cc1cccc(OCCn2c(NC(=O)c3ccco3)nc3ccccc32)c1,EC50,[14],4.74 µM (active)
same,EC50,[15],> 150 µM (not active)
same,EC50,[11],1.69 µM (active)
same,EC50,[12],29.8 µM (active)
same,EC50,[16],7.32 µM (active)
same,IC50,[10],11 µM (active)
Cc1ccc(S(=O)(=O)N2CCOCC2)cc1NC(=O)CN(C)C1CCS(=O)(=O)C1 (configuration not stated),EC50,[1],> 300 µM (not active)
same,EC50,[2],> 300 µM (not active)
Cc1nc2ccccc2c(=O)[nH]1,IC50,[10],> 79 µM (inactive)
